In US11040981B2, “Pyrrolotriazine compounds and methods of inhibiting TAM kinases” (Syros Pharmaceuticals, Inc., priority 2017, dated 2021):

How the values were obtained:
[1] = biological target: T1, MERTK (Homo sapiens, UniProt Q12866); experiment: TR-FRET kinase activity assay, MERTK; type: biochemical
T1 sequence (Q12866 21-999): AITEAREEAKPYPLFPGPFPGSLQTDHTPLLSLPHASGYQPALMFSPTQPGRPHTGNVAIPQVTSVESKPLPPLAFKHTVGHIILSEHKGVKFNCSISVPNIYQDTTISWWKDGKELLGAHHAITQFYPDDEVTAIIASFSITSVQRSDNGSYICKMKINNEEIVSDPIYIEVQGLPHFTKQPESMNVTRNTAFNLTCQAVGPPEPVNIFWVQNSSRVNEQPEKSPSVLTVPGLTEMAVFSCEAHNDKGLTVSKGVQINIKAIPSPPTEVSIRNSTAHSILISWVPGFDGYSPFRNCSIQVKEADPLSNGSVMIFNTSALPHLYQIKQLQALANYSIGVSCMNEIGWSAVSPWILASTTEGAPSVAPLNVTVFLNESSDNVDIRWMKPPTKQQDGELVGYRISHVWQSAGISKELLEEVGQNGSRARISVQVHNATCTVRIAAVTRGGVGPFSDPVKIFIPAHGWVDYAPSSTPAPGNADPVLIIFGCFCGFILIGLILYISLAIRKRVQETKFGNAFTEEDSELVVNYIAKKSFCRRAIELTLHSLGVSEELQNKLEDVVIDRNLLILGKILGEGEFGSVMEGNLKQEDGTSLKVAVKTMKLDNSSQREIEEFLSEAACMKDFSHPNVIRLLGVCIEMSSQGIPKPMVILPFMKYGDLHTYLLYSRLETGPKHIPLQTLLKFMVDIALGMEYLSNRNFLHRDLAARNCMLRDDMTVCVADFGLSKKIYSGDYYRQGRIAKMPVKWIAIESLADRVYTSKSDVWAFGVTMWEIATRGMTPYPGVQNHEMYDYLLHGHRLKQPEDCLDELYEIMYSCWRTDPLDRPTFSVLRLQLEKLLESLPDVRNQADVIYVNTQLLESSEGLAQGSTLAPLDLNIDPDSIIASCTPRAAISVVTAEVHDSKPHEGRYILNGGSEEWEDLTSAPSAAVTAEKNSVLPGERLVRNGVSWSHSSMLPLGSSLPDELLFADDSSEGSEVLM
Outline: (§1)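 Recombinant human kinases, fluorescent peptide substrate, ATP at Km; 1 h RT, pH 7.5. EDTA-quenched, Eu antibody added, TR-FRET read; IC50 determined.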

[2] = biological target: T2, TYRO3 (Homo sapiens, UniProt Q06418); experiment: TR-FRET kinase activity assay, TYRO3; type: biochemical; details: ATP at Km, 60 minutes
T2 sequence (Q06418 41-890): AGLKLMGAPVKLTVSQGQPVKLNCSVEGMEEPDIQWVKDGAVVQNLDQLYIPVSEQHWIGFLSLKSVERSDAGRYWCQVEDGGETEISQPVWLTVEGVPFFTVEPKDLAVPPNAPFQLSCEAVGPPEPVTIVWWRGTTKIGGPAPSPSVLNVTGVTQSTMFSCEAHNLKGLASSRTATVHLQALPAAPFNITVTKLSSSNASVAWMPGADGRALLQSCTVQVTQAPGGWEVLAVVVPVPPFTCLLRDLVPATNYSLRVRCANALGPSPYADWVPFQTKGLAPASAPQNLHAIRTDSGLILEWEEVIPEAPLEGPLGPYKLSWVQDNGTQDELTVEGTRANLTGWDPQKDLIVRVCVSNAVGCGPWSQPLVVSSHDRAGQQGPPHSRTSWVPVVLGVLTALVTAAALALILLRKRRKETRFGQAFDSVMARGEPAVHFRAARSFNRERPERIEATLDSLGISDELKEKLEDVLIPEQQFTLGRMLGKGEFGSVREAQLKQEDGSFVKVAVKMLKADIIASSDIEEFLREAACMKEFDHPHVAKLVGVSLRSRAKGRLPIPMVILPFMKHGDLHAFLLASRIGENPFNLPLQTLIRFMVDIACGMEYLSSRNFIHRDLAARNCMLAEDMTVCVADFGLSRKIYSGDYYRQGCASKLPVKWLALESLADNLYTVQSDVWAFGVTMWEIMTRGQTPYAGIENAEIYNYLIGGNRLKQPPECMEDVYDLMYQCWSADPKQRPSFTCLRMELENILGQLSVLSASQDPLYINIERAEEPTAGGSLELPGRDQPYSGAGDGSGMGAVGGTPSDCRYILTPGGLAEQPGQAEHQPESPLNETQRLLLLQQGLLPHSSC
Outline: as §1

IC50 ([1]; TR-FRET activity assay, ATP at Km, 60 minutes, read-out: Mer IC50): ≤ 100 nM
FLT3/Mer ratio (FLT3 IC50/Mer IC50) ([1]; ratio calculated as FLT3 IC50/Mer IC50): +++ (“+++” represents a ratio of >100)
IC50 [2]: ≤ 100 nM
Structure (SMILES): COC[C@H](C)Nc1ncc2c(-c3ccnc(N4CCC(C)(O)C4)c3)cc(C3CCC(O)CC3)n2n1 (stereo partly drawn) [Compound 633]
